Measured values as given in US10059698B2, “Hesperetin aza-cinnamic acid derivatives with anti-tumor activities and a method of preparing the same” (Shaanxi University of Science and Technology, priority 2016, dated 2018).

Experiments:
[1] = test system: human gastric adenocarcinoma cells (SGC-7901); assay: tumor cell proliferation inhibition test (MTT), SGC-7901; type: cell-based; conditions: SGC-7901 cells, 48 hours
Excerpt: (§1) The compounds of the present invention were subjected to tumor cell proliferation inhibition test, and the conventional MTT method was used as the test method.
(§2) Cell lines selected are nonismall cell lung cancer cells (A549), human hepatocellular carcinoma cells (SMMC-7721), human glioma cells (U251), human gastric adenocarcinoma cells (SGC-7901), and human breast cancer cells (MCF-7). The culture medium was DMEM+15% NBS+double antibody.
(§3) Preparation of the sample solutions: compounds were dissolved in DMSO (Merck), and PBS (−) was add to 100 μL of the solution or homogeneous suspension. The solution or suspension was diluted with DMSO and PBS(−) to final concentrations of 0.1, 1, 10, 20, 40, 60, 80, 100 μmol/L.
(§4) Anti-tumor agent cytarabine (Ara-C) was used as control and was prepared in the same way as the compounds.
(§5) Cell culture: adherent growth Tumor cells were cultured in 1640 medium containing 10% inactivated neonatal bovine serum and penicillin, streptomycin (1 million U/L), placed in carbon dioxide incubator at 37° C., 5% CO2, and saturated humidity. Cells were treated serially passaged 2-3 times. The first culture was washed with PBS 2 times, and digested with trypsin. Fresh culture medium was added evenly, cells were adjusted to a appropriate concentration and transferred into a new culture flask. Cell in an exponential phase were chosen for the tests.
(§6) Experimental Principle: Living cells mitochondria in the dehydrogenase can reduce yellow MTT to water-insoluble blue-violet product MT (MTT formazan), deposited in the cells. The amount of production is proportional to the number of living cells. […] DMSO can dissolve blue violet crystals, and the color depth is proportional to the amount contained, so the absorbance measured by the microplate reader can reflect the cell viability.
(§7) Methods: The exponential phase cells were digested and counted and seeded in 96-well plates at a density of 2×10^4/mL at 100 μl per well. After 24 hours of incubation, the cells to be tested were treated with 0.1, 1, 10, 20, 40, 60, 80, 100 μmol/L of the compounds. Each experimental group had 5 wells in each concentration, and the culture medium containing 0.4% DMSO was used as control. After 48 hours, the supernatant was discarded, and 100 μl of MTT ((2-(4,5-dimethyl-2-thiazolyl)-3,5-diphenyl-2H-[…]) (1 mg/mL) was added to each well. After another 4 hours, the supernatant was discarded, and 100 μL of DMSO was added to each well. After mixing, the absorbance was measured at 570 nm using a microplate reader. An IC50 calculation software was used to determine the half inhibitory concentration (IC50).

[2] = test system: human glioma cells (U251); assay: tumor cell proliferation inhibition test (MTT), U251; type: cell-based; conditions: U-251, 48 hours
Excerpt: as §1, §2, §3, §4, §5, §6, §7

[3] = test system: human hepatocellular carcinoma cells (SMMC-7721); assay: tumor cell proliferation inhibition test (MTT), SMMC-7721; type: cell-based; conditions: SMMC-7721 cells, 48 hours
Excerpt: as §1, §2, §3, §4, §5, §6, §7

[4] = test system: human breast cancer cells (MCF-7); assay: tumor cell proliferation inhibition test (MTT), MCF-7; type: cell-based; conditions: MCF7, MCF-7 cells, 48 hours
Excerpt: as §1, §2, §3, §4, §5, §6, §7

[5] = test system: nonismall cell lung cancer cells (A549); assay: tumor cell proliferation inhibition test (MTT), A549; type: cell-based; conditions: Homo sapiens, 48 hours
Excerpt: as §1, §2, §3, §4, §5, §6, §7

[6] = test system: tumor cells (A549, SMMC-7721, U251, SGC-7901, MCF-7); assay: tumor cell proliferation inhibition test (MTT), all cell lines tested; type: cell-based, human; conditions: in some cell lines tested
Excerpt: as §1, §2, §3, §4, §5, §6, §7

HepG2 cells = conditions: in vitro; time-dependent and dose-effect relationship; cited from earlier work
[7] = rats; cited from earlier work

| IC50 [1] | IC50 [2] | IC50 [3] | IC50 [4] | IC50 [5] | Structure (SMILES) | activities compared with Ara-C [6] | inhibition of proliferation of HepG2 cells (HepG2 cells) | toxicity of doxorubicin [7] |
| --- | --- | --- | --- | --- | --- | --- | --- | --- |
| > 100 µM | > 100 µM | > 100 µM | > 100 µM | > 100 µM | COc1ccc([C@@H]2CC(=O)c3c(O)cc(OC(=O)/C=C/c4ccc([N+](=O)[O-])cn4)cc3O2)cc1O [Compound E, (S,E) 5-hydroxy-2-(3-hydroxy-4-methoxyphenyl)-4-oxochroman-7-yl 3-(5-nitropyridin-2-yl) acrylate acid ester] | – | – | – |
| > 100 µM | 46 ± 0.21 µM | 67.1 ± 1.74 µM | > 100 µM | > 100 µM | COc1ccc([C@@H]2CC(=O)c3c(O)cc(OC(=O)/C=C/c4ccc(C)cn4)cc3O2)cc1O [Compound B, (S,E) 5-hydroxy-2-(3-hydroxy-4-methoxyphenyl)-4-oxochroman-7-yl 3-(5-methylpyridin-2-yl) acrylate acid ester] | equal or better activities than Ara-C | – | – |
| > 100 µM | 28.5 ± 0.45 µM | > 100 µM | > 100 µM | 69.13 ± 0.36 µM | COc1ccc([C@@H]2CC(=O)c3c(O)cc(OC(=O)/C=C/c4ccccn4)cc3O2)cc1OC [Compound G, (S,E) 2-(3,4-dimethoxyphenyl)-5-hydroxy-4-oxochroman-7-yl 3-(pyridin-2-yl) acrylate acid ester] | equal or better activities than Ara-C | – | – |
| 63.87 ± 0.4 µM | > 100 µM | 33.3 ± 2.08 µM | 18.6 ± 1.01 µM | > 100 µM | COc1ccc([C@@H]2CC(=O)c3c(O)cc(OC(=O)/C=C/c4ccc(O)c(OC)n4)cc3O2)cc1OC [Compound M, (S,E) 2-(3,4-dimethoxyphenyl)-5-hydroxy-4-oxochroman-7-yl 3-(5-hydroxy-6-methoxypyridin-2-yl) acrylate acid ester] | equal or better activities than Ara-C | – | – |
| 18.4 ± 1.71 µM | 11.7 ± 0.45 µM | 86.9 ± 2.28 µM | 22.7 ± 0.32 µM | 5.54 ± 0.39 µM | COc1ccc([C@@H]2CC(=O)c3c(O)cc(OC(=O)/C=C/c4ccc(Cl)cn4)cc3O2)cc1O [Compound C, (S,E) 5-hydroxy-2-(3-hydroxy-4-methoxyphenyl)-4-oxochroman-7-yl 3-(5-chloropyridin-2-yl) acrylate acid ester] | equal or better activities than Ara-C | – | – |
| > 100 µM | > 100 µM | > 100 µM | > 100 µM | > 100 µM | COc1ccc([C@@H]2CC(=O)c3c(O)cc(OC(=O)/C=C/c4ccc([N+](=O)[O-])cn4)cc3O2)cc1OC [Compound K, (S,E) 2-(3,4-dimethoxyphenyl)-5-hydroxy-4-oxochroman-7-yl 3-(5-nitropyridin-2-yl) acrylate acid ester] | – | – | – |

Second part, the compound before the results:

| Structure (SMILES) | IC50 [1] | IC50 [2] | IC50 [3] | IC50 [4] | IC50 [5] | activities compared with Ara-C [6] | inhibition of proliferation of HepG2 cells (HepG2 cells) | toxicity of doxorubicin [7] |
| --- | --- | --- | --- | --- | --- | --- | --- | --- |
| Nc1ccn([C@@H]2O[C@H](CO)[C@@H](O)[C@@H]2O)c(=O)n1 [Ara-C, cytarabine, reference compound] | 67.6 ± 3.73 µM | 19.2 ± 0.39 µM | 18.3 ± 0.64 µM | 76.9 ± 1.78 µM | > 100 µM | – | – | – |
| COc1ccc([C@@H]2CC(=O)c3c(O)cc(OC(=O)/C=C/c4ccc(O)c(OC)n4)cc3O2)cc1O [Compound F, (S,E) 5-hydroxy-2-(3-hydroxy-4-methoxyphenyl)-4-oxochroman-7-yl 3-(5-hydroxy-6-methoxypyridin-2-yl) acrylate acid ester] | > 100 µM | > 100 µM | 23.7 ± 1.5 µM | 92.1 ± 2.73 µM | > 100 µM | equal or better activities than Ara-C | – | – |
| COc1ccc([C@@H]2CC(=O)c3c(O)cc(O)cc3O2)cc1O [hesperetin, Hesperetin] | – | – | – | – | – | – | can inhibit the proliferation of HepG2 cells in vitro | could reduce the toxicity of doxorubicin in rats |
| COc1ccc([C@@H]2CC(=O)c3c(O)cc(OC(=O)/C=C/c4ccc(Cl)cn4)cc3O2)cc1OC [Compound I, (S,E) 2-(3,4-dimethoxyphenyl)-5-hydroxy-4-oxochroman-7-yl 3-(5-chloropyridin-2-yl) acrylate acid ester] | 16.1 ± 0.47 µM | 63.9 ± 2.28 µM | 63.9 ± 2.28 µM | > 100 µM | > 100 µM | equal or better activities than Ara-C | – | – |
| COc1ccc([C@@H]2CC(=O)c3c(O)cc(OC(=O)/C=C/c4ccc(F)cn4)cc3O2)cc1OC [Compound J, (S,E) 2-(3,4-dimethoxyphenyl)-5-hydroxy-4-oxochroman-7-yl 3-(5-fluoropyridin-2-yl) acrylate acid ester] | > 100 µM | 25.1 ± 0.47 µM | 84.31 ± 0.47 µM | 16.1 ± 0.47 µM | 46.3 ± 0.47 µM | equal or better activities than Ara-C | – | – |
| COc1ccc([C@@H]2CC(=O)c3c(O)cc(OC(=O)/C=C/c4ccc(C)cn4)cc3O2)cc1OC [Compound H, (S,E) 2-(3,4-dimethoxyphenyl)-5-hydroxy-4-oxochroman-7-yl 3-(5-methylpyridin-2-yl) acrylate acid ester] | 63.9 ± 2.28 µM | > 100 µM | 47.88 ± 0.4 µM | > 100 µM | > 100 µM | equal or better activities than Ara-C | – | – |
| COc1ccc([C@@H]2CC(=O)c3c(O)cc(OC(=O)/C=C/c4ccccn4)cc3O2)cc1O [Compound A, (S,E) 5-hydroxy-2-(3-hydroxy-4-methoxyphenyl)-4-oxochroman-7-yl 3-(pyridin-2-yl) acrylic acid ester] | 89.9 ± 1.02 µM | > 100 µM | 46.8 ± 1.56 µM | 43.1 ± 1.31 µM | 35.1 ± 0.47 µM | equal or better activities than Ara-C | – | – |
| COc1ccc([C@@H]2CC(=O)c3c(O)cc(OC(=O)/C=C/c4ccc(F)cn4)cc3O2)cc1O [Compound D, (S,E) 5-hydroxy-2-(3-hydroxy-4-methoxyphenyl)-4-oxochroman-7-yl 3-(5-fluoropyridin-2-yl) acrylate acid ester] | 67.13 ± 0.28 µM | 57.13 ± 0.47 µM | 12.8 ± 1.37 µM | 23.7 ± 1.5 µM | 7.28 ± 0.13 µM | equal or better activities than Ara-C | – | – |
